Measured values published in PubChem BioAssay AID2060513 (Molecular Pharmacology Branch, DTP, NCI, 2025).

System: 299254-011-R-J1-PDC complex spheroids viability
Experiment: Anticancer human tumor 299254-011-R-J1-PDC patient-derived melanoma cell line growth inhibition [GQUAD]
Conditions: for IC50: curve of first compound; for viability, T/C: stronger effect = lower value
Summary of the method: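 Tumor cells were grown as complex spheroids with HUVEC endothelial cells and mesenchymal stem cells as stroma. G-quadruplex stabilizers were combined with targeted agents over half-log dilutions from near the clinical Cmax, or from 10 microM.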

[1] = second compound 0.0316 µM, first compound 0.000999 µM
[2] = second compound 0.0316 µM, first compound 0.00316 µM
[3] = second compound 0.0316 µM, first compound 0.00999 µM
[4] = second compound 0.0316 µM, first compound 0.0316 µM
[5] = second compound 0.0316 µM, first compound 0.0999 µM
[6] = second compound 0.0316 µM, first compound 0.316 µM
[7] = second compound 0.1 µM, first compound 0.000999 µM
[8] = second compound 0.1 µM, first compound 0.00316 µM
[9] = second compound 0.1 µM, first compound 0.00999 µM
[10] = second compound 0.1 µM, first compound 0.0316 µM
[11] = second compound 0.1 µM, first compound 0.0999 µM
[12] = second compound 0.1 µM, first compound 0.316 µM
[13] = second compound 0.316 µM, first compound 0.000999 µM
[14] = second compound 0.316 µM, first compound 0.00316 µM
[15] = second compound 0.316 µM, first compound 0.00999 µM
[16] = second compound 0.316 µM, first compound 0.0316 µM
[17] = second compound 0.316 µM, first compound 0.0999 µM
[18] = second compound 0.316 µM, first compound 0.316 µM
[19] = second compound 1 µM, first compound 0.000999 µM
[20] = second compound 1 µM, first compound 0.00316 µM
[21] = second compound 1 µM, first compound 0.00999 µM
[22] = second compound 1 µM, first compound 0.0316 µM
[23] = second compound 1 µM, first compound 0.0999 µM
[24] = second compound 1 µM, first compound 0.316 µM
[25] = second compound 3.16 µM, first compound 0.000999 µM
[26] = second compound 3.16 µM, first compound 0.00316 µM
[27] = second compound 3.16 µM, first compound 0.00999 µM
[28] = second compound 3.16 µM, first compound 0.0316 µM
[29] = second compound 3.16 µM, first compound 0.0999 µM
[30] = second compound 3.16 µM, first compound 0.316 µM
[31] = second compound 10 µM, first compound 0.000999 µM
[32] = second compound 10 µM, first compound 0.00316 µM
[33] = second compound 10 µM, first compound 0.00999 µM
[34] = second compound 10 µM, first compound 0.0316 µM
[35] = second compound 10 µM, first compound 0.0999 µM
[36] = second compound 10 µM, first compound 0.316 µM
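Further: spheroids exposed to the agents for seven days before readout.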
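Wherever viability, T/C is given: percent viability relative to DMSO vehicle control wells = 100%.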

## CC[C@@]1(O)C(=O)OCc2c1cc1n(c2=O)Cc2cc3c(CN(C)C)c(O)ccc3nc2-1 + Cc1cnc(CNC(=O)c2c(=O)c3ccc(N4CCCN(C)CC4)nc3n3c2sc2ccccc23)cn1
Second compound 0.0316 µM
  IC50: > 0.316 µM
Second compound 0.1 µM
  IC50: > 0.316 µM
Second compound 0.316 µM
  IC50: > 0.316 µM
Second compound 1 µM
  IC50: > 0.316 µM
Second compound 3.16 µM
  IC50: > 0.316 µM
Second compound 10 µM
  IC50: < 0.000999 µM
[1]
  viability, T/C: 127%
[2]
  viability, T/C: 86.3%
[3]
  viability, T/C: 96.4%
[4]
  viability, T/C: 86.7%
[5]
  viability, T/C: 98.5%
[6]
  viability, T/C: 81.3%
[7]
  viability, T/C: 87.5%
[8]
  viability, T/C: 116%
[9]
  viability, T/C: 81.8%
[10]
  viability, T/C: 101%
[11]
  viability, T/C: 88.2%
[12]
  viability, T/C: 73.8%
[13]
  viability, T/C: 106%
[14]
  viability, T/C: 92.8%
[15]
  viability, T/C: 103%
[16]
  viability, T/C: 84.9%
[17]
  viability, T/C: 92.4%
[18]
  viability, T/C: 82.2%
[19]
  viability, T/C: 76.2%
[20]
  viability, T/C: 79.8%
[21]
  viability, T/C: 89.5%
[22]
  viability, T/C: 79.6%
[23]
  viability, T/C: 74.3%
[24]
  viability, T/C: 76.6%
[25]
  viability, T/C: 80.8%
[26]
  viability, T/C: 70.7%
[27]
  viability, T/C: 89.9%
[28]
  viability, T/C: 94.5%
[29]
  viability, T/C: 77.7%
[30]
  viability, T/C: 53.6%
[31]
  viability, T/C: 0.41%
[32]
  viability, T/C: 16.5%
[33]
  viability, T/C: 49.5%
[34]
  viability, T/C: 36.7%
[35]
  viability, T/C: 0.46%
[36]
  viability, T/C: 0.37%

## Cn1ncnc1[C@H]1c2n[nH]c(=O)c3cc(F)cc(c23)N[C@@H]1c1ccc(F)cc1 + CN(C)c1ccc(Nc2c3ccc(NC(=O)CCN4CCCC4)cc3nc3cc(NC(=O)CCN4CCCC4)ccc23)cc1
Second compound 0.0316 µM
  IC50: > 0.316 µM
Second compound 0.1 µM
  IC50: > 0.316 µM
Second compound 0.316 µM
  IC50: > 0.316 µM
Second compound 1 µM
  IC50: > 0.316 µM
Second compound 3.16 µM
  IC50: > 0.316 µM
Second compound 10 µM
  IC50: > 0.316 µM
[1]
  viability, T/C: 108%
[2]
  viability, T/C: 101%
[3]
  viability, T/C: 100%
[4]
  viability, T/C: 101%
[5]
  viability, T/C: 105%
[6]
  viability, T/C: 83.8%
[7]
  viability, T/C: 90.5%
[8]
  viability, T/C: 109%
[9]
  viability, T/C: 107%
[10]
  viability, T/C: 102%
[11]
  viability, T/C: 86.9%
[12]
  viability, T/C: 87.5%
[13]
  viability, T/C: 110%
[14]
  viability, T/C: 90.3%
[15]
  viability, T/C: 100%
[16]
  viability, T/C: 106%
[17]
  viability, T/C: 93.1%
[18]
  viability, T/C: 97.8%
[19]
  viability, T/C: 121%
[20]
  viability, T/C: 84.5%
[21]
  viability, T/C: 98.4%
[22]
  viability, T/C: 92.8%
[23]
  viability, T/C: 98.6%
[24]
  viability, T/C: 92.6%
[25]
  viability, T/C: 110%
[26]
  viability, T/C: 98.2%
[27]
  viability, T/C: 101%
[28]
  viability, T/C: 105%
[29]
  viability, T/C: 112%
[30]
  viability, T/C: 100%
[31]
  viability, T/C: 87%
[32]
  viability, T/C: 85.2%
[33]
  viability, T/C: 89.8%
[34]
  viability, T/C: 101%
[35]
  viability, T/C: 93.9%
[36]
  viability, T/C: 109%

## COc1ncnc(C2CC2)c1-c1ncc2cnn(Cc3ccc(-c4nc(C(F)(F)F)cn4C(C)C)cc3)c2n1 + CN(C)c1ccc(Nc2c3ccc(NC(=O)CCN4CCCC4)cc3nc3cc(NC(=O)CCN4CCCC4)ccc23)cc1
Second compound 0.0316 µM
  IC50: > 10 µM
Second compound 0.1 µM
  IC50: > 10 µM
Second compound 0.316 µM
  IC50: > 10 µM
Second compound 1 µM
  IC50: > 10 µM
Second compound 3.16 µM
  IC50: > 10 µM
Second compound 10 µM
  IC50: > 10 µM
[4]
  viability, T/C: 92.6%
Second compound 0.0316 µM, first compound 0.1 µM
  viability, T/C: 78.1%
[6]
  viability, T/C: 106%
Second compound 0.0316 µM, first compound 1 µM
  viability, T/C: 98.3%
Second compound 0.0316 µM, first compound 3.16 µM
  viability, T/C: 101%
Second compound 0.0316 µM, first compound 10 µM
  viability, T/C: 88%
[10]
  viability, T/C: 102%
Second compound 0.1 µM, first compound 0.1 µM
  viability, T/C: 97.3%
[12]
  viability, T/C: 114%
Second compound 0.1 µM, first compound 1 µM
  viability, T/C: 96.3%
Second compound 0.1 µM, first compound 3.16 µM
  viability, T/C: 97.4%
Second compound 0.1 µM, first compound 10 µM
  viability, T/C: 121%
[16]
  viability, T/C: 101%
Second compound 0.316 µM, first compound 0.1 µM
  viability, T/C: 103%
[18]
  viability, T/C: 92.2%
Second compound 0.316 µM, first compound 1 µM
  viability, T/C: 99.4%
Second compound 0.316 µM, first compound 3.16 µM
  viability, T/C: 101%
Second compound 0.316 µM, first compound 10 µM
  viability, T/C: 117%
[22]
  viability, T/C: 117%
Second compound 1 µM, first compound 0.1 µM
  viability, T/C: 77%
[24]
  viability, T/C: 98.6%
Second compound 1 µM, first compound 1 µM
  viability, T/C: 98.6%
Second compound 1 µM, first compound 3.16 µM
  viability, T/C: 99.8%
Second compound 1 µM, first compound 10 µM
  viability, T/C: 107%
[28]
  viability, T/C: 86.9%
Second compound 3.16 µM, first compound 0.1 µM
  viability, T/C: 99.8%
[30]
  viability, T/C: 86.5%
Second compound 3.16 µM, first compound 1 µM
  viability, T/C: 105%
Second compound 3.16 µM, first compound 3.16 µM
  viability, T/C: 113%
Second compound 3.16 µM, first compound 10 µM
  viability, T/C: 104%
[34]
  viability, T/C: 93.3%
Second compound 10 µM, first compound 0.1 µM
  viability, T/C: 110%
[36]
  viability, T/C: 96.2%
Second compound 10 µM, first compound 1 µM
  viability, T/C: 79.4%
Second compound 10 µM, first compound 3.16 µM
  viability, T/C: 89.5%
Second compound 10 µM, first compound 10 µM
  viability, T/C: 93.7%
